This passage reports EC50 and CC50 results from patent US12419865B2 (priority 2018, dated 2025).

The structures appear in SMILES notation.

One data set deals with VSV-p. Nature of the data set: microbe, parasite or virus in culture. Format: cell-based. The following applies: Vesicular stomatitis virus, Vero, read-out: VSV-p EC50.
A further data set relates to TCRV-p. Put plainly: organism not typed. Format: cell-based. The following applies: Vero, read-out: TCRV-p EC50.
In another data set the test system is MACV-p. Put plainly: organism not typed. The format is cell-based, Machupo (MACV). The following applies: Vero, read-out: MACV-p EC50.
The next data set concerns LASV-p. Put plainly: microbe, parasite or virus in culture. The format is cell-based, Lassa (LASV). The conditions noted are these: Vesicular stomatitis virus, Vero, read-out: LASV-p EC50.
The next data set deals with JUNV-p. Put plainly: organism not typed. The format is cell-based, Junin (JUNV). The conditions noted are these: Vero, read-out: JUNV-p EC50.
A further data set can be described thus: in vitro. The conditions noted are these: African green monkey.

For the compound `CC(C)Oc1ccc(-n2nnc3ccc(-c4cccc(OC(C)C)c4)cc32)cc1` [Example C18, 6-(3-isopropoxyphenyl)-1-(4-isopropoxyphenyl)-1H-benzo[d][1,2,3]triazole], the EC50 was greater than 10000 nM in the data set with VSV-p; greater than 25 nM in the data set with TCRV-p; greater than 25 nM in the data set on MACV-p; greater than 25 nM in the data set with LASV-p; greater than 25 nM with JUNV-p.
Take `CC(C)Oc1ccc(-c2cc3c(cc2C(=O)O)nnn3-c2ccc(OC(C)C)cc2)cc1` [Example C20, 1,6-bis(4-isopropoxyphenyl)-1H-benzo[d][1,2,3]triazole-5-carboxylic acid]: the concentration giving a half-maximal response (EC50) in the data set on VSV-p was greater than 10000 nM; with TCRV-p it was greater than 25 nM; in the data set with MACV-p, greater than 25 nM; with LASV-p, greater than 25 nM; in the data set on JUNV-p it was greater than 25 nM.
Turning to `CC(C)Oc1ccc(-c2cc3c(cc2C(N)=O)nnn3-c2ccc(OC(C)C)cc2)cc1` [Example C21, 1,6-bis(4-isopropoxyphenyl)-1H-benzo[d][1,2,3]triazole-5-carboxamide], the EC50 was greater than 10000 nM with VSV-p; greater than 25 nM with TCRV-p; greater than 25 nM in the data set on MACV-p; greater than 25 nM in the data set on LASV-p; greater than 25 nM with JUNV-p.
For the compound `CCc1cc2nnn(-c3ccc(OC(C)C)cc3)c2cc1-c1ccc(OC(C)C)cc1` [Example C26, 5-ethyl-1,6-bis(4-isopropoxphenyl)-1H-benzo[d][1,2,3]triazole], the concentration for a half-maximal effect (EC50) is greater than 10000 nM in the data set with VSV-p; 5.92 nM in the data set with TCRV-p; 0.04 nM in the data set on MACV-p; 3.9 nM in the data set with LASV-p; 0.1 nM with JUNV-p. Moreover, the CC50 in “in vitro” worked out at 3590 nM.
On to `Cc1nc2ncc(-c3ccc(C(C)(C)O)cc3)n2cc1-c1ccc(OC(C)C)cc1` [Example D29, 2-(4-(6-(4-isopropoxphenyl)-7-methylimidazo[1,2-a]pyrimidin-3-yl)phenyl)propan-2-ol], for which the concentration giving a half-maximal response (EC50) in the data set on VSV-p is greater than 10000 nM; in the data set with TCRV-p, 1.27 nM; in the data set with MACV-p, 0.87 nM; in the data set with LASV-p, 1.84 nM; with JUNV-p it was 1.03 nM. In the data set “in vitro”, the CC50 was found to be 42100 nM.
Regarding `COc1cc2nnn(-c3ccc(O)cc3)c2cc1-c1ccc(O)cc1` [Example C24, 4,4′-(5-methoxy-1H-benzo[d][1,2,3]triazole-1,6-diyl)diphenol], the EC50 in the data set with VSV-p was greater than 10000 nM; with TCRV-p, 18.4 nM; with MACV-p it was greater than 25 nM; with LASV-p, 4.62 nM; in the data set on JUNV-p, 19 nM. In addition, in the data set “in vitro”, the CC50 worked out at 32200 nM.
For `CC(C)Oc1ccc(-n2nnc3ccc(-c4cccc(C(C)(C)O)c4)cc32)cc1` [Example C17, 2-(3-(1-(4-isopropoxyphenyl)-1H-benzo[d][1,2,3]triazol-6-yl)phenyl)propan-2-ol], the EC50 with VSV-p was greater than 10000 nM; in the data set with TCRV-p, greater than 25 nM; with MACV-p, greater than 25 nM; with LASV-p, 15.8 nM; in the data set on JUNV-p it was 12.2 nM. Further, in the data set “in vitro”, the CC50 amounted to 10500 nM.
For `COC(=O)c1cc2nnn(-c3ccc(OC(C)C)cc3)c2cc1-c1ccc(OC(C)C)cc1` [Example C10, methyl 1,6-bis(4-isopropoxyphenyl)-1H-benzo[d][1,2,3]triazole-5-carboxylate], the half-maximal effective concentration (EC50) in the data set with VSV-p was greater than 10000 nM; in the data set on TCRV-p, 12.3 nM; in the data set on MACV-p it was 4.05 nM; in the data set on LASV-p, 20.6 nM; in the data set on JUNV-p it was 11 nM. The CC50 in the data set “in vitro” was greater than 100000 nM.
Consider `Cc1nc2ncc(-c3ccc(OC(C)C)cc3)n2cc1-c1ccc(OC(C)C)cc1` [Example D27, 3,6-bis(4-isopropoxyphenyl)-7-methylimidazo[1,2-a]pyrimidine], for which the EC50 is greater than 10000 nM in the data set on VSV-p; 0.2 nM in the data set on TCRV-p; 0.85 nM with MACV-p; 0.75 nM in the data set with LASV-p; 0.78 nM with JUNV-p. Further, the CC50 in “in vitro” was 2180 nM.
Take `Cc1nc2ncc(-c3ccc(OC(C)(C)C)cc3)n2cc1-c1ccc(OC(C)C)cc1` [Example D28, 3-(4-(tert-butoxy)phenyl)-6-(4-isopropoxyphenyl)-7-methylimidazo[1,2-a]pyrimidine]: the EC50 in the data set with VSV-p is greater than 10000 nM; in the data set on TCRV-p, 0.15 nM; in the data set on MACV-p, 0.31 nM; in the data set on LASV-p, 0.3 nM; with JUNV-p it was 0.4 nM. In “in vitro”, this compound showed a CC50 of 12300 nM.
As to `CC(C)Oc1ccc(-c2cc3c(cc2CO)nnn3-c2ccc(OC(C)C)cc2)cc1` [Example C19, (1,6-bis(4-isopropoxyphenyl)-1H-benzo[d][1,2,3]triazol-5-yl)methanol], the 50% effective concentration (EC50) in the data set with VSV-p is greater than 10000 nM; in the data set with TCRV-p it was 8 nM; in the data set on MACV-p, 3.82 nM; with LASV-p it was 22.5 nM; in the data set on JUNV-p it was 0.75 nM. In the data set “in vitro”, the CC50 worked out at 81700 nM.
Regarding `CC(C)Oc1ccc(-c2cc3c(cc2CN)nnn3-c2ccc(OC(C)C)cc2)cc1` [Example C22, (1,6-bis(4-isopropoxyphenyl)-1H-benzo[d][1,2,3]triazol-5-yl)methanamine], the EC50 was greater than 10000 nM in the data set with VSV-p; greater than 25 nM in the data set with TCRV-p; greater than 25 nM in the data set with MACV-p; greater than 25 nM in the data set with LASV-p; greater than 25 nM in the data set with JUNV-p.
As to `C=Cc1cc2nnn(-c3ccc(OC(C)C)cc3)c2cc1-c1ccc(OC(C)C)cc1` [Example C25, 1,6-bis(4-isopropoxyphenyl)-5-vinyl-1H-benzo[d][1,2,3]triazole], the concentration for a half-maximal effect (EC50) is greater than 10000 nM in the data set on VSV-p; 8.01 nM in the data set with TCRV-p; 0.3 nM in the data set on MACV-p; 6.78 nM in the data set with LASV-p; 1.47 nM with JUNV-p. In “in vitro”, this compound displayed a CC50 of 3870 nM.
In the case of `CC(C)Oc1ccc(-c2cc3c(cc2N)nnn3-c2ccc(OC(C)C)cc2)cc1` [Example C23, 1,6-bis(4-isopropoxyphenyl)-1H-benzo[d][1,2,3]triazol-5-amine], the EC50 in the data set on VSV-p was greater than 10000 nM; in the data set on TCRV-p it was 0.96 nM; in the data set with MACV-p it was 0.53 nM; in the data set with LASV-p it was 6.72 nM; in the data set with JUNV-p, 0.29 nM. In the data set “in vitro”, this compound had a CC50 of 43000 nM.
With `Cc1cc2ncc(-c3ccc(C(C)(C)O)cc3)n2cc1-c1ccc(C(C)(C)O)cc1` [Example B9, 2,2′-((7-methylimidazo[1,2-a]pyridine-3,6-diyl)bis(4,1-phenylene))bis(propan-2-ol)], the EC50 with VSV-p is greater than 10000 nM; with TCRV-p, 16.1 nM; in the data set on MACV-p it was greater than 25 nM; with LASV-p, greater than 25 nM; with JUNV-p, greater than 25 nM.
In the case of `COc1cc2nnn(-c3ccc(OC(C)C)cc3)c2cc1-c1ccc(OC(C)C)cc1` [Example C15, 1,6-bis(4-isopropoxyphenyl)-5-methoxy-1H-benzo[d][1,2,3]triazole], the 50% effective concentration (EC50) in the data set on VSV-p was greater than 10000 nM; with TCRV-p it was 11.4 nM; in the data set with MACV-p, 7.09 nM; in the data set on LASV-p, 23.4 nM; in the data set with JUNV-p, 3.06 nM. The compound also returned a CC50 in “in vitro” of 98400 nM.

As a reminder, the EC50 is the concentration needed to bring the measured effect to its halfway point.
